Values quoted from earlier work as cited in patent US20220347170A1, “Method of Reducing Brow Ache” (priority 2021, published 2022).

Conditions: aceclidine alone; U.S. Pat. Nos. 9,089,562, 9,833,441 and 9,314,427

In the case of `CC(=O)OC1CN2CCC1CC2` (stereo not shown) [aceclidine], the brow ache is given as “significant brow ache”.
